We go through two compounds from paper PMC2680961, “Homologous desensitization of signalling by the alpha (α) isoform of the human thromboxane A2 receptor: A specific role for nitric oxide signalling” (Biochimica et Biophysica Acta, 2007).

For one assay, the target named is T1, TPα^S239A (Homo sapiens, UniProt P21731, S239A).
T1 construct: expressed in transfected cells
T1 sequence (P21731 1-343 S239A): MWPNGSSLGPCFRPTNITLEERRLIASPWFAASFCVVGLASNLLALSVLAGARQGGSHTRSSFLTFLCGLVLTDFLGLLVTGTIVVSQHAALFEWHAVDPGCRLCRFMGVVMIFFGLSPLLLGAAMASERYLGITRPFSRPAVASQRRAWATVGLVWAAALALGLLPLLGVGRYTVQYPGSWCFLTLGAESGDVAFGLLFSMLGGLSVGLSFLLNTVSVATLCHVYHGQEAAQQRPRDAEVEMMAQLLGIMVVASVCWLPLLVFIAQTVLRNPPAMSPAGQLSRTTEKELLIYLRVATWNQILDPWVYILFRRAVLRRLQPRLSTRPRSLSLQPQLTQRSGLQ
The assay is described as follows: [3H]SQ29,548 radioligand binding, Scatchard analysis, HEK.TPα^S239A. On the procedure: Cells were harvested by centrifugation at 500×g at 4 °C for 5 min and washed three times with ice-cold Ca^2+/Mg^2+-free phosphate-buffered saline (PBS). TP radioligand binding assays were carried out at 30 °C for 30 min in 100 μl reactions in the presence of 0–40 nM [^3H] […] Protein determinations were carried out using the Bradford assay.
Radioligand binding and Scatchard analysis data were analysed using GraphPad Prisim V4.0 programme (GraphPad Software Inc., San Diego CA, USA). Statistical analyses were carried out using the unpaired Student's t test using the Statworks Analysis Package. p-values ≤ 0.01 indicated statistically significant differences.

Another assay has as its target T2, TP^Δ328 (Homo sapiens, UniProt P21731).
T2 construct: expressed in transfected cells
T2 sequence (P21731 1-328): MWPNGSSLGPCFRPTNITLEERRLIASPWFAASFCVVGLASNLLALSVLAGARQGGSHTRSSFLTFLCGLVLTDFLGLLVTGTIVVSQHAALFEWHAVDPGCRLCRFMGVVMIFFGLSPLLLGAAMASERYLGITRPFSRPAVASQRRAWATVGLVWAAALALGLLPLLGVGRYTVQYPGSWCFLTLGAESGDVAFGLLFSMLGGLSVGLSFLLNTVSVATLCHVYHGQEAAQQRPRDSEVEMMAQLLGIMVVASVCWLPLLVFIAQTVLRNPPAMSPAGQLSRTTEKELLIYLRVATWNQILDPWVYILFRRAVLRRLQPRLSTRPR
The assay can be described thus: Intracellular calcium mobilization, HEK.TP^Δ328 cells. The assay is classed as cell-based. Particulars: for Δ[Ca2+]i, U46619-induced: HEK.TP^Δ328. The method, then: Measurement of intracellular calcium mobilization ([Ca^2+]i) in FURA2/AM preloaded HEK 293 cell lines (2 × 10^6 cells/dish), each transiently co-transfected with pADVA (10 μg), and pCMV:Gαq (25 μg), was carried out as previously described. To investigate the effect of GRK2/βARK1 on TP-mediated [Ca^2+]i mobilization, HEK.TPα or HEK.TPβ cells (2 × 10^6 cells/dish) were co-transfected with pADVA (10 μg), pCMV:Gαq (25 μg) along with pRK5:βARK1^495–689 (25 μg), encoding a dominant negative form of GRK2/βARK1[39]. Approximately 48 h post-transfection, cells were harvested by scraping, washed twice in ice-cold PBS and resuspended in HBSSHB (modified Ca^2+/Mg^2+-free Hank's buffered salt solution, containing […], pH 7.67, 0.1% bovine serum albumin (BSA)) buffer at 10^7 cells/ml and incubated in the dark with 5 μM FURA2/AM for 45 min at 37 °C. Cells were collected by centrifugation (900×g, 5 min), washed once in an equal volume of HBSSHB, and were finally resuspended in HBSSHB buffer at 10^7 cells/ml and kept at room temperature in the dark for 40 min. For each measurement of [Ca^2+]i mobilization, aliquots of cells were diluted to 0.825 × 10^6 cells/ml in HBSSHB, 1 mM CaCl2 and FURA2 fluorescence was recorded (2 ml aliquots of cells) at 37^ °C with gentle stirring with a Perkin Elmer-Cetus LS50-B spectrofluorometer at excitation wavelengths of 340 nm and 380 nm and emission wavelength of 510 nm, respectively.
Cells were stimulated with the TP agonist U46619 (1 μM) and changes in [Ca^2+]i mobilization were monitored as a function of time. To assess agonist-mediated homologous desensitization, cells (0.825 × 10^6 cells/ml; 2 ml per assay) were stimulated with 1 μM U46619 (Primary stimulation) or, as a control, with the vehicle for 4 min; thereafter, cells were collected by centrifugation (900×g, 5 min); were washed twice in 2 ml HBSSHB, 1 mM CaCl2; and finally resuspended in 2 ml HBSSHB,1 mM CaCl2 and were left to recover over various time intervals (ranging from 0 to 60 min); thereafter, cells re-stimulated with 1 μM U46619 (Secondary stimulation) and changes in [Ca^2+]i mobilization were monitored as a function of time. To assess the role of protein kinase (PK) A, PKC or PKG on U46619-mediated desensitization of TPα signalling, cells were pre-incubated with the PKA inhibitor H-89 (10 μM), the PKC inhibitor GF 109203X (50 nM) or the PKG inhibitor KT 5823 (50 nM), for 15 min and respective kinase inhibitors were maintained throughout the primary/secondary U46619-stimulations and during the washes.
The vehicle had no effect on U46619-mediated [Ca^2+]i mobilization. Calibration of the signal was performed in each sample by adding 0.2% Triton X-100 to obtain the maximal fluorescence ratio (Rmax) and then 1 mM EGTA to obtain the minimal fluorescence ratio (Rmin). The ratio of the fluorescence at 340 nm to that at 380 nm is a measure of [Ca^2+]i, which assumes a Kd of 225 nM Ca^2+ for FURA2/AM. The results presented in the figures are representative data from at least three or four independent experiments and are plotted as changes in Ca^2+i mobilized (Δ[Ca^2+]i (nM)) as a function of time (s) upon ligand stimulation. Changes in [Ca^2+]i mobilization were determined by measuring peak rises in [Ca^2+]i mobilized (Δ[Ca^2+]i) and were calculated as mean changes in Δ[Ca^2+]i ± S.E.M. (nM).

Another assay has as its system eNOS. The assay is described as follows: eNOS phosphorylation (anti-phospho eNOS^Ser1177 western blot). Particulars: HEK.TPα cells (also HEK 293, HEK.TPβ); 1 μM U46619 or 10 U/ml Thrombin, 5 min, 37 °C. The assay is classed as cell-based, human. On the procedure:
In order to assess eNOS phosphorylation, HEK.TPα, HEK.TPβ or HEK 293 cells (2 × 10^6 cells/10-cm dish) were plated some 48 h prior to experimentation. Cells were incubated with vehicle, 1 μM U46619 or 10 U/ml Thrombin for 5 min at 37 °C and aliquots of whole cell protein (100 μg/lane) were analysed by SDS-PAGE/western blot. Blots were initially screened using the anti-phospho eNOS^1177 as per supplier's instructions (Cell Signalling Technology) and, following stripping, were subsequently re-screened using the anti-eNOS (Transduction Laboratories).

For the compound `O=C(O)CCC/C=C\C[C@@H]1[C@H](CNNC(=O)Nc2ccccc2)[C@H]2CC[C@@H]1O2` [SQ29,548], the “Bmax (pmol/mg protein ± S.E.M.)” value at TPα^S239A was 4.35 ± 0.04 pmol/mg protein.

As for `CCCCC[C@H](O)/C=C/[C@@H]1[C@@H](C/C=C\CCCC(=O)O)[C@H]2CO[C@@H]1C2` [U46619], the “Δ[Ca2+]i, U46619-induced” value at TP^Δ328 (primary stimulation, 1 μM U46619 4 min) amounted to 180 ± 5.6 nM; on TP^Δ328 (secondary 1 μM U46619 at 15 min), 158 ± 3.8 nM; at TP^Δ328 (secondary 1 μM U46619 at 60 min) it was 178 ± 6.7 nM. Further, the “secondary U46619 [Ca2+]i response relative to primary response” value at TP^Δ328 (TP^Δ328, restimulation at 15 min) was ~80%. Further, in the assay on eNOS, the “eNOS phosphorylation at Ser^1177” value was “rapid phosphorylation-dependent activation of eNOS”.
